Results on eight substances are retold here after patent US20220280594A1, “APPLICATION OF POLYPEPTIDE OR DERIVATIVE THEREOF” (CHENGDU HUITAI BIOMEDICINE CO., LTD., priority 2019, published 2022).

Ends that are not written are not given here. PEG = not defined here

Format in all cases: cell-based
For experiment [1], the system named is human pancreatic cancer cells (PANC-1). Kind of experiment: transwell invasion assay, PANC-1 cells. The note with it: PANC-1 transwell invasion, 10 μM, 24 hours; control group 727 ± 68. The source says:
(§1) The Transwell chamber system was used in the transwell cell invasion experiment. The chamber has an upper layer and a lower layer, which are separated by an artificial semipermeable membrane in the middle. The upper surface of the semipermeable membrane is coated with a layer of artificial matrigel to simulate extracellular matrix. Cells that have invaded through the matrigel and semi-permeable membrane will attach to the lower surface of the semi-permeable membrane. The invasion ability is evaluated by counting the number of cells on the lower surface of the semi-permeable membrane. The number of cells that have invaded is negatively correlated with the inhibitory effect of the drug on the invasion ability of the tumor cells. Transwell invasion assay was performed as follows: tumor cells were cultured in vitro, cells in logarithmic growth phase were collected, and cell suspension was prepared with fresh serum-free medium at a density of 2-3×10^5 cells/mL. Cells were inoculated, 100 μL/well cell suspension (serum-free medium) in the upper chamber and 600 μL/well complete culture medium in the lower chamber. After incubated in 37° C., 5% CO2 incubator for 4-5 hours, serum-free medium (100 μL/well) was added to the control group, and serum-free medium containing polypeptide or derivative thereof (N1-N54) was added to the upper chamber of the treatment group (100 μL/well), the final concentration of the peptide or derivative thereof in the upper chamber was 10 μM. The cells were incubated continuously for 24 hours, and then fixed with methanol and stained with crystal violet. Images were taken under a microscope and the number of invaded cells was counted with ImageJ.
This example was the transwell cell invasion experiment to evaluate the inhibitory effect of the polypeptide or derivative thereof (N1-N54) on the invasion ability of human pancreatic cancer cells (PANC-1). The experimental method was as described in Example 4.

For experiment [2], the system named is human colon cancer cells (HCT-116). Kind of experiment: scratch assay, migration of HCT-116 cells. Conditions: HCT-116, 10 μM, 48 hours; control group 47.78 ± 6.07. The method, then:
(§2) In the scratch assay, the cell migration rate was negatively correlated with the inhibitory effect of the drug component on tumor cell migration ability. The cell migration inhibition experiment was described as follows: tumor cells were cultured in vitro, cells in logarithmic growth phase were collected and seeded evenly in a 24-well plate at a density of 1-2×10^5 cells/well; the cells were cultured in a cell incubator until a monolayer was formed; a scratch tool was used to make a “-” (straight) scratch on the monolayer of cells; the cells were washed 1-3 times with PBS, and a medium (with 2% fetal bovine serum) containing specific test components was added to the culture. Experimental grouping: PBS control group; polypeptide or derivative thereof treatment group (N1-N54), 10 μM. Three independent parallel wells were set up in each group, and the cells were cultured continuously in a cell incubator for 48 hours. […] At least 3 representative images for each well were taken. ImageJ software was used to count the migration distance of the cells, and the cell migration rate was calculated as: cell migration rate (%)=(width of original scratch−width of current scratch)/width of original scratch×100.
This example was a scratch assay to evaluate the inhibitory effect of the polypeptide or derivative thereof (N1-N54) on the migration ability of human colon cancer cells (HCT-116). The experimental method was as described in Example 2.

Experiment [3] relates to human breast cancer cells (MCF-7). The experiment can be described thus: scratch assay, migration of MCF-7 cells. Conditions: MCF-7, 10 μM, 48 hours; control group 30.97 ± 1.79. Here is the method: as §2
This example was a scratch assay to evaluate the inhibitory effect of the polypeptide or derivative thereof (N1-N54) on the migration ability of human breast cancer cells (MCF-7). The experimental method was as described in Example 2.

Experiment [4] deals with human pancreatic cancer cells (PANC-1). Kind of experiment: transwell migration assay, PANC-1 cells. The note with it: PANC-1 transwell migration, 10 μM, 24 hours; control group 360 ± 60. Here is the method:
as §1, with “migration” for “invasion”, “middle.” for “middle. The upper surface of the semipermeable membrane is coated with a layer of artificial matrigel to simulate extracellular matrix.”, “migrated” for “invaded”, “the” for “the matrigel and”
This example was a transwell cell migration experiment to evaluate the inhibitory effect of the polypeptide or derivative thereof (N1-N54) on the migration ability of human pancreatic cancer cells (PANC-1). The experimental method was as described in Example 3.

Experiment [5] has as its system human non-small cell lung cancer cells (A549). Kind of experiment: scratch assay, migration of A549 cells. The note with it: A549, 10 μM, 48 hours; control group 75.31 ± 8.19. Here is the method: as §2
This example was a scratch assay to evaluate the inhibitory effect of the polypeptide or derivative thereof (N1-N54) on the migration ability of human non-small cell lung cancer (A549). The experimental method was as described in Example 2.

The subject of experiment [6] is human liver cancer cells (HepG2). The experiment can be described thus: scratch assay, migration of HepG2 cells. Conditions: HepG2, 10 μM, 48 hours; control group 71.01 ± 6.63. The method, then:
as §2
This example was a scratch assay to evaluate the inhibitory effect of the polypeptide or derivative thereof (N1-N54) on the migration ability of human liver cancer cells (HepG2). The experimental method was as described in Example 2.

The subject of experiment [7] is human breast cancer cells (MDA-MB-231). The experiment can be described thus: scratch assay, migration of MDA-MB-231 cells. The note with it: MDA-MB-231, 10 μM, 48 hours; control group 36.19 ± 5.15. The method, then: as §2
This example was a scratch assay to evaluate the inhibitory effect of the polypeptide or derivative thereof (N1-N54) on the migration ability of human breast cancer cells (MDA-MB-231). The experimental method was as described in Example 2.

In experiment [8] the test system is human pancreatic cancer cells (PANC-1). Kind of experiment: scratch assay, migration of PANC-1 cells. The note with it: PANC-1, 10 μM, 48 hours; control group 66.65 ± 3.37. The method, then:
as §2
This example was a scratch assay to evaluate the inhibitory effect of the polypeptide or derivative thereof (N1-N54) on the migration ability of human pancreatic cancer cells (PANC-1). The experimental method was as described in Example 2.

With “N9: SEQ ID NO: 1 with deletion of positions 15-18 and PEG modification at the amino terminal ({PEG}-YRVRFLAKENVTQD; reading uncertain)”, in experiment [1], the “Number of cells (mean ± SD, P), invaded cells” value is 93 ± 6,****. Further, the “Migration rate (%) (mean ± SD, P)” value in experiment [2] is recorded as 25.96 ± 3.84,** %; in experiment [3], 5.28 ± 2.11,*** %; in experiment [5], 56.92 ± 4.49,** %; in experiment [6], 35.11 ± 5.16,** %; in experiment [7] it was 15.96 ± 3.92,* %; in experiment [8], 29.12 ± 5.84,*** %. For the same substance, in experiment [4], the “Number of cells (mean ± SD, P), migrated cells” value is 148 ± 16,***.

For the substance “N10: SEQ ID NO: 1 with deletion of positions 15-18 and 1-3 and PEG modification at the carboxyl terminal (RFLAKENVTQD-{PEG}; reading uncertain)”, the “Number of cells (mean ± SD, P), invaded cells” value in experiment [1] is on record as 159 ± 12,****. Besides, the “Migration rate (%) (mean ± SD, P)” value in experiment [2] is recorded as 8.70 ± 2.39,*** %; in experiment [3] it was 9.55 ± 2.72,** %; in experiment [5], 26.86 ± 8.78,** %; in experiment [6], 39.45 ± 5.00,** %; in experiment [7] it was 13.6 ± 4.62,** %; in experiment [8] it was 32.80 ± 5.89,** %. The “Number of cells (mean ± SD, P), migrated cells” value in experiment [4] is on record as 254 ± 20,*.

For “N11: SEQ ID NO: 1 with deletion of positions 15-18 and 1-3 and PEG modification at the amino terminal ({PEG}-RFLAKENVTQD; reading uncertain)”, the “Number of cells (mean ± SD, P), invaded cells” value in experiment [1] is 66 ± 14,****. In addition, the “Migration rate (%) (mean ± SD, P)” value in experiment [2] is listed as 13.81 ± 2.92,*** %; in experiment [3], 9.34 ± 3.74,** %; in experiment [5] it was 30.79 ± 6.74,** %; in experiment [6], 53.36 ± 5.49,* %; in experiment [7], 10.68 ± 5.72,** %; in experiment [8] it was 28.37 ± 7.57,** %. Also, the “Number of cells (mean ± SD, P), migrated cells” value in experiment [4] is on record as 239 ± 26,*.

Consider “N12: SEQ ID NO: 1 with deletion of position 18 and positions 1-2 (VRFLAKENVTQDAED)”, for which, in experiment [1], the “Number of cells (mean ± SD, P), invaded cells” value is given as 180 ± 17,****. The “Migration rate (%) (mean ± SD, P)” value in experiment [2] is given as 8.14 ± 3.00,*** %; in experiment [3], 11.65 ± 3.32,** %; in experiment [5] it was 20.05 ± 8.79,** %; in experiment [6] it was 48.01 ± 5.38,** %; in experiment [7], 15.41 ± 3.55,** %; in experiment [8] it was 23.26 ± 6.90,** %. Further, the “Number of cells (mean ± SD, P), migrated cells” value in experiment [4] is given as 246 ± 14,*.

With “N13: SEQ ID NO: 1 with deletion of positions 15-18 and positions 1-5 (LAKENVTQD)”, the “Number of cells (mean ± SD, P), invaded cells” value in experiment [1] is 161 ± 19,****. The “Migration rate (%) (mean ± SD, P)” value in experiment [2] is given as 12.19 ± 3.22,*** %; in experiment [3], 13.79 ± 2.05,** %; in experiment [5], 19.37 ± 9.40,** %; in experiment [6] it was 45.91 ± 4.70,** %; in experiment [7], 7.45 ± 2.6,*** %; in experiment [8], 18.28 ± 8.38,*** %. Also, in experiment [4], the “Number of cells (mean ± SD, P), migrated cells” value is listed as 255 ± 24,*.

As for “N14: SEQ ID NO: 1 with deletion of positions 1-5 and addition of one amino acid at the carboxyl terminal (LAKENVTQDAEDNC)”, the “Number of cells (mean ± SD, P), invaded cells” value in experiment [1] was 157 ± 37,****. Besides, the “Migration rate (%) (mean ± SD, P)” value in experiment [2] was 12.24 ± 2.32,*** %; in experiment [3], 7.05 ± 1.40,*** %; in experiment [5] it was 15.27 ± 8.75,*** %; in experiment [6], 48.61 ± 4.63,** %; in experiment [7], 14.59 ± 5.36,* %; in experiment [8], 26.63 ± 6.67,*** %. Moreover, the “Number of cells (mean ± SD, P), migrated cells” value in experiment [4] is given as 263 ± 16,*.

For the substance “N15: SEQ ID NO: 1 with substitution N18R and addition of one amino acid to the carboxyl terminal (YRVRFLAKENVTQDAEDRC)”, the “Number of cells (mean ± SD, P), invaded cells” value in experiment [1] is 104 ± 9,****. Moreover, the “Migration rate (%) (mean ± SD, P)” value in experiment [2] was 10.41 ± 2.99,*** %; in experiment [3], 11.57 ± 2.10,** %; in experiment [5], 14.98 ± 9.09,** %; in experiment [6], 53.20 ± 5.58,* %; in experiment [7] it was 13.03 ± 5.72,** %; in experiment [8], 14.85 ± 5.08,*** %. Further, the “Number of cells (mean ± SD, P), migrated cells” value in experiment [4] is listed as 220 ± 18,**.

For “N16: SEQ ID NO: 1 with substitution A7R and addition of one amino acid at the carboxyl terminus (YRVRFLRKENVTQDAEDNC)”, the “Number of cells (mean ± SD, P), invaded cells” value in experiment [1] is given as 128 ± 25,****. Moreover, the “Migration rate (%) (mean ± SD, P)” value in experiment [2] was 9.39 ± 2.06,*** %; in experiment [3], 9.81 ± 3.29,** %; in experiment [5], 30.57 ± 5.41,** %; in experiment [6], 43.25 ± 5.18,** %; in experiment [7] it was 14.99 ± 6.11,* %; in experiment [8], 19.15 ± 4.97,*** %. Further, the “Number of cells (mean ± SD, P), migrated cells” value in experiment [4] was 230 ± 28,*.
